Data from ChEMBL document CHEMBL1201862, “PubChem BioAssay data set” (2004).
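Briefly, cells in 96-well plates were exposed to five compound concentrations for 48 h, and endpoints were estimated by linear interpolation. The concentration for 50% growth inhibition is given as GI50.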 Calls of active or inactive are those of the source. No stated cut-off is given here; in the data, active = GI50 up to about 1.1 µM and inactive = higher.

How the values were obtained:
Experiment in all cases: growth of human tumour cells (NCI), 48 h
A498 = system: A498
A549 = system: A549
ACHN = system: ACHN
COLO 205 = system: COLO 205
HCC 2998 = system: HCC 2998
MOLT-4 = system: MOLT-4
NCI-H460 = system: NCI-H460
OVCAR-3 = system: OVCAR-3
OVCAR-4 = system: OVCAR-4
OVCAR-8 = system: OVCAR-8
RPMI-8226 = system: RPMI-8226
RXF 393 = system: RXF 393
SF-268 = system: SF-268
SF-539 = system: SF-539
SK-MEL-28 = system: SK-MEL-28
UO-31 = system: UO-31

Measured: GI50

O=C(/C=C/c1ccc(Cl)cc1)c1ccncc1
inactive: A498 27 µM | A549 58.5 µM | ACHN 35.9 µM | COLO 205 > 100 µM | HCC 2998 40.4 µM | MOLT-4 27 µM | NCI-H460 59.7 µM | OVCAR-3 40.8 µM | OVCAR-4 22.5 µM | OVCAR-8 > 100 µM | RPMI-8226 89.3 µM | RXF 393 21.4 µM | SF-268 85.9 µM | SF-539 25.9 µM | SK-MEL-28 52.6 µM | UO-31 40.3 µM

C=C(C(=C)P(=S)(C(C)C)C(C)C)P(=S)(C(C)C)C(C)C
inactive: A498 > 100 µM | A549 > 100 µM | ACHN > 100 µM | COLO 205 > 100 µM | HCC 2998 > 100 µM | MOLT-4 > 100 µM | NCI-H460 > 100 µM | OVCAR-3 > 100 µM | OVCAR-4 > 100 µM | OVCAR-8 > 100 µM | RPMI-8226 > 100 µM | RXF 393 > 100 µM | SF-268 > 100 µM | SF-539 > 100 µM | SK-MEL-28 > 100 µM | UO-31 > 100 µM

O=C(CC1(O)C(=O)Nc2c(Cl)ccc(Cl)c21)c1ccc(Cl)cc1 (centres undefined)
inactive: A498 38.4 µM | A549 45.5 µM | ACHN 20.8 µM | COLO 205 18.6 µM | HCC 2998 24.5 µM | NCI-H460 23.4 µM | OVCAR-3 23.3 µM | OVCAR-4 25.7 µM | OVCAR-8 18.9 µM | RPMI-8226 21 µM | RXF 393 21.9 µM | SF-268 37 µM | SF-539 24.8 µM | SK-MEL-28 53.7 µM | UO-31 34.4 µM

CC(C)c1ccccc1NC(=O)CCc1n[nH]c(=S)o1
inactive: A498 > 100 µM | A549 99.8 µM | ACHN > 81.7 µM | COLO 205 27.2 µM | HCC 2998 > 100 µM | MOLT-4 > 100 µM | NCI-H460 > 49.9 µM | OVCAR-3 > 100 µM | OVCAR-4 > 100 µM | OVCAR-8 > 100 µM | RPMI-8226 > 48.9 µM | RXF 393 > 100 µM | SF-268 > 100 µM | SF-539 72.3 µM | SK-MEL-28 > 100 µM | UO-31 > 100 µM

Cc1ccc(S(=O)(=O)OC2CS[S+]([O-])CC2OS(=O)(=O)c2ccc(C)cc2)cc1 (centres undefined)
inactive: A498 16.1 µM | A549 19 µM | ACHN 17 µM | COLO 205 11.8 µM | HCC 2998 17.1 µM | MOLT-4 2.23 µM | NCI-H460 22.3 µM | OVCAR-3 17.4 µM | OVCAR-4 15.6 µM | OVCAR-8 10.6 µM | RPMI-8226 5.74 µM | RXF 393 8.22 µM | SF-268 17 µM | SF-539 15.2 µM | SK-MEL-28 15.6 µM | UO-31 18.9 µM

Cc1cc2c(C)n[nH]c2c(C(=O)O)c1C
inactive: A498 > 100 µM | A549 > 100 µM | ACHN > 100 µM | COLO 205 > 100 µM | HCC 2998 > 100 µM | MOLT-4 > 100 µM | NCI-H460 > 100 µM | OVCAR-3 > 100 µM | OVCAR-4 51.6 µM | OVCAR-8 > 100 µM | RPMI-8226 > 100 µM | RXF 393 > 100 µM | SF-539 > 100 µM | SK-MEL-28 > 100 µM | UO-31 85.5 µM

N#CC(C(=O)C(=O)C(C#N)c1ccc(Br)cc1)c1ccc(Br)cc1 (centres undefined)
inactive: A498 15.8 µM | A549 23.3 µM | ACHN 12.6 µM | COLO 205 16.5 µM | HCC 2998 12 µM | MOLT-4 4.4 µM | NCI-H460 16 µM | OVCAR-3 9.38 µM | OVCAR-4 12.3 µM | RPMI-8226 4.65 µM | RXF 393 4.26 µM | SF-268 10.5 µM | SF-539 15.5 µM | SK-MEL-28 14.6 µM | UO-31 16.3 µM

Fc1ccc(C2SCc3nc4ccccc4n32)cc1Cl (centres undefined)
inactive: A498 33.7 µM | A549 25.8 µM | ACHN 25.5 µM | COLO 205 15.3 µM | HCC 2998 16.3 µM | MOLT-4 23.2 µM | NCI-H460 29.2 µM | OVCAR-4 20 µM | OVCAR-8 21.3 µM | RXF 393 19.4 µM | SF-268 33.6 µM | SF-539 18.7 µM | SK-MEL-28 24.7 µM | UO-31 16.7 µM

CCCNCCCCC(NC(C)=O)C(=O)NCc1ccccc1 (centres undefined)
inactive: A498 > 100 µM | A549 > 100 µM | ACHN > 100 µM | COLO 205 > 100 µM | HCC 2998 > 100 µM | MOLT-4 > 100 µM | NCI-H460 > 100 µM | OVCAR-3 > 100 µM | OVCAR-4 > 100 µM | OVCAR-8 > 100 µM | RPMI-8226 > 100 µM | RXF 393 > 100 µM | SF-268 > 100 µM | SF-539 > 100 µM | SK-MEL-28 > 100 µM | UO-31 > 100 µM
